Data on two molecules can be found in patent publication US8557265B2, “Use of a synergistic composition as a therapeutic agent of disinfectant” (Bode Chemie GmbH, priority 2007, dated 2013).

Assay type in all cases: cell-based
For one test, the system named is Bacillus subtilis. Kind of test: Test for antimicrobial action, colony count after plating. To be noted: cell count of 106 in 50 μl mixed 1:1; incubation time 2 minutes; plated, 37° C. As for the experimental part: (§1) Fresh cultures of the indicated microorganisms were adjusted to a cell count of […] in 50 μl and then mixed in a 1:1 ratio with 50 μl of water 70% ethanol or the invented agent (100 mM ascorbic acid, 10 mM FeCl3, and 0.5% SDS). After an incubation time of 2 minutes, the 100 μl batches with the bacteria were plated out on corresponding growth dishes. After an incubation of 1-3 days at 28° C. (Saccharomyces cerevisiae and Candida parapsilosis) or 37° C. (Escherichia coli and Bacillus subtilis), the number of grown colonies was determined. In the batches with sterile water, all microorganisms survived.

The subject of the next test is Candida parapsilosis. The test is described as above. The conditions noted are these: cell count of 106 in 50 μl mixed 1:1; incubation time 2 minutes; plated, 28° C. As for the experimental part:
as §1

The next test has as its system Saccharomyces cerevisiae. The test is described as above. To be noted: cell count of 106 in 50 μl mixed 1:1; incubation time 2 minutes; plated, 28° C. Here is the method: as §1
For another test, the system named is Escherichia coli. The test is described as above. To be noted: cell count of 106 in 50 μl mixed 1:1; incubation time 2 minutes; plated, 37° C. As for the experimental part:
as §1

Test [1] relates to genomic DNA and extrachromosomal plasmid (Yep351) of recombinant Escherichia coli strain. Kind of test: Breakdown of genomic DNA and extrachromosomal plasmid DNA in microorganisms, gel electrophoresis (FIG. 1). The conditions noted are these: E. coli suspension, lysozyme 5 minutes, then 5 minutes with 5 μl of solution. As for the experimental part: A recombinant Escherichia coli strain with an extrachromosomal plasmid (Yep351) was cultivated overnight in LB amp medium. Every 5 μl of this E. coli suspension were treated with 5 μl of lysozyme solution (1 mg/ml) for 5 minutes and then incubated for another 5 minutes with 5 μl of the indicated solutions (1-5). After adding bromophenol blue, the samples were placed in the gel bags and the DNA molecules were separated by electrophoresis.

SMILES strings stand for the structures.

With `CCO` [70% ethanol, ethanol], the “number of grown colonies” value in the test on Bacillus subtilis, in the test with Candida parapsilosis, in the test with Saccharomyces cerevisiae and with Escherichia coli was 0 throughout. Also, in test [1], the “effect on DNA molecules in gel electrophoresis” value is “precipitation of the cell lysate and the DNA”.

For the molecule `CCCCCCCCCCCCOS(=O)(=O)[O-].[Na+]` [sample 3, SDS], the “effect on DNA molecules in gel electrophoresis” value in test [1] was “lysis of the cells”.
